Consider three compounds from patent US10619209B2, “Serotonin transporter gene and treatment of opioid-related disorders” (University of Virginia Patent Foundation, priority 2008, dated 2020).

The test system of data set [1] is alcohol-dependent men and women. Briefly: 12-week treatment trial of ondansetron by 5'-HTTLPR and rs1042173 genotype (Example 4). It counts as in vivo, human. As for the experimental part:
289 alcohol-dependent men and women enrolled in a 12-week treatment trial in which they received either ondansetron (4 μg/kg) or placebo. All subjects also received weekly cognitive behavioral therapy as their standardized psychosocial treatment. Genotyping was conducted on all subjects. Mixed-effects models were used to study the effect of treatment and genotype and their interaction for each of the primary drinking outcomes. The models included random intercept and random slope and were adjusted for covariates such as participants' average 90-day drinking levels prior to the study, age, gender, ethnicity (Caucasian and Hispanic), and center. A variance-components covariance matrix was used to model different variances for the intercept and slope and a covariance between them. Interactions of treatment, genotype, age, and center were first included in the models. They were excluded from the final models if not significant.

Data set [2] has as its system alcohol-dependent individuals. The data set can be described thus: 12-week randomized controlled pharmacotherapy trial of ondansetron by 5'-HTTLPR genotype (Example 3). The settings on record: for mean (SEM) DDD reduction from baseline across the treatment period: ondansetron 4 μg/kg b.i.d., 12 weeks. The format is in vivo, human. An excerpt: In a pre-planned interim analysis, data were examined for the 226 alcohol-dependent individuals (aged 18-65 years) enrolled into the 12-week randomized controlled pharmacotherapy trial to determine the effect of ondansetron on drinking among individuals who varied on allelic difference at the 5-HTT gene and age of alcoholism onset. All these individuals were enrolled at the University of Texas Health Science Center at San Antonio. Briefly, the study design was 2 (LL vs. LS/SS)×2 (early onset vs. late onset)×2 (ondansetron 4 μg/kg b.i.d. vs. placebo). The inferential results below are for the severity of drinking—drinks/drinking day (DDD).
Demographic data were that: 74% were male and 26% female; 48% were early-onset alcoholics and 52% late-onset alcoholics, and 20% were Hispanic and 80% White. There were no significant differences (P>0.05) on demographics between the treatment groups. Baseline mean (SD) DDD (past 90 days) were also similar for the ondansetron 4 μg/kg b.i.d. and placebo groups—9.83 (4.63) vs. 9.85 (4.49), respectively. The inferential analyses were conducted on all randomized subjects according to the intent-to-treat principle. The analytic plan was first to calculate the DDD in each week. We then used the difference between weekly DDD and the baseline DDD (in the past 90 days) as repeat measures. A mixed-model approach (SAS PROC MIXED) was used to study the effect of treatment, genotype (LL vs. LS/SS), treatment and genotype interaction, age, age of onset (early vs. late), gender, and age at onset of problem drinking, adjusting for the baseline DDD level. Also included is a random slope for time to study the variation in the time trend of the weekly DDD.

For data set [3] the following is noted: alcohol trials; 50 mg/day; cited from earlier work.
For data set [4] the following is noted: cited from earlier work.
The mark [5] stands for this setting: placebo vs. treatment, LL genotype.
The mark [6] stands for this setting: placebo vs. treatment, LS/SS genotype.
The mark [7] stands for this setting: treatment (ondansetron) group, LS/SS vs. LL.

Structures can show the parent of a compound that is named as a salt.

In the case of `Cc1nccn1CC1CCc2c(c3ccccc3n2C)C1=O` (centres unmarked) [ondansetron, 9-methyl-3-[(2-methyl-1H-imidazol-1-yl)methyl]-1,2,3,9-tetrahydrocarbazol-4-one], the “mean difference in DDD” value was −1.50 DDD in data set [1] (LL genotype, treatment group vs placebo group); −1.41 DDD in data set [1] (treated with ondansetron 4 μg/kg, LL vs LS/SS genotype); −1.31 DDD in data set [1] (treated with ondansetron 4 μg/kg, TT vs TG/GG genotype of rs1042173). Also, the “mean (SEM) DDD reduction from baseline across the treatment period” value in data set [2] (LL genotype) is recorded as 5.70 (0.64) DDD; in data set [2] (LS/SS genotype) it was 3.45 (0.44) DDD. The entries for the “Cohen's d” value in data set [2] (setting [5]), in data set [2] (setting [6]) and in data set [2] (setting [7]) were 0.08, 0.04 and 0.10, respectively. Moreover, the “Estimate (cell contrast on DDD)” value in data set [2] (setting [5]) is 2.16 DDD; in data set [2] (setting [6]), −0.80 DDD; in data set [2] (setting [7]) it was 2.25 DDD.

As for `O=C1CC[C@@]2(O)[C@H]3Cc4ccc(O)c5c4[C@@]2(CCN3CC2CC2)[C@H]1O5` [naltrexone, 17-(Cyclopropylmethyl)-4,5a-epoxy-3,14-dihydroxymorphinan-6-one hydrochloride], the “individuals unable to tolerate the dose” value in data set [3] is listed as “about 15%”.

For the compound `CC1(C)O[C@@H]2[C@@H](CO[C@@]3(COS(N)(=O)=O)OC(C)(C)O[C@@H]23)O1` [topiramate, 2,3:4,5-Bis-O-(1-methylethylidene)-beta-D-fructopyranose sulfamate], the “individuals reporting cognitive impairment” value in data set [4] (general population) was 2.4%. Moreover, the “occurrence rate of cognitive impairment” value in data set [4] (substance abuse field) is reported as “about 18.7%”.
